Calls of active or inactive are those of the source. The rule behind the calls is not given here.
Legend:
[1] = system: A549; experiment: Induction of apoptosis in human A549 cells assessed as early apoptotic cells at 2.5 uM after 24 hrs by Annexin-V-FITC/propidium iodide staining based flow cytometric method (reference value: 0.56%); type: functional
[2] = system: A549; experiment: Induction of apoptosis in human A549 cells assessed as early apoptotic cells at 13.6 uM after 24 hrs by Annexin-V-FITC/propidium iodide staining based flow cytometric method (reference value: 0.56%); type: functional
[3] = system: A549; experiment: Induction of cell cycle arrest in human A549 cells assessed as accumulation at G2/M phase at 5 uM incubated for 24 hrs by flow cytometry (reference value: 10.38%); type: functional
[4] = system: A549; experiment: Induction of cell cycle arrest in human A549 cells assessed as accumulation at S phase at 13.6 uM incubated for 24 hrs by flow cytometry (reference value: 33.65%); type: functional
[5] = system: A549; experiment: Induction of apoptosis in human A549 cells assessed as late apoptotic cells at 13.6 uM after 24 hrs by Annexin-V-FITC/propidium iodide staining based flow cytometric method (reference value: 1.40%); type: functional
[6] = system: A549; experiment: Induction of apoptosis in human A549 cells assessed as late apoptotic cells at 1.25 uM after 24 hrs by Annexin-V-FITC/propidium iodide staining based flow cytometric method (reference value: 1.40%); type: functional
[7] = system: A549; experiment: Induction of apoptosis in human A549 cells assessed as necrotic cells at 2.5 uM after 24 hrs by Annexin-V-FITC/propidium iodide staining based flow cytometric method (reference value: 1.12%); type: functional
[8] = system: A549; experiment: Induction of apoptosis in human A549 cells assessed as late apoptotic cells at 5 uM after 24 hrs by Annexin-V-FITC/propidium iodide staining based flow cytometric method (reference value: 1.40%); type: functional
[9] = system: A549; experiment: Induction of cell cycle arrest in human A549 cells assessed as accumulation at S phase at 5 uM incubated for 24 hrs by flow cytometry (reference value: 33.65%); type: functional
[10] = system: A549; experiment: Induction of apoptosis in human A549 cells assessed as early apoptotic cells at 5 uM after 24 hrs by Annexin-V-FITC/propidium iodide staining based flow cytometric method (reference value: 0.56%); type: functional
[11] = system: A549; experiment: Induction of apoptosis in human A549 cells assessed as late apoptotic cells at 2.5 uM after 24 hrs by Annexin-V-FITC/propidium iodide staining based flow cytometric method (reference value: 1.40%); type: functional
[12] = system: A549; experiment: Cytotoxicity against human A549 cells incubated for 48 hrs by MTT assay; type: functional, cell-based; conditions: A549, 48 h
[13] = system: A549; experiment: Induction of cell cycle arrest in human A549 cells assessed as accumulation at G0/G1 phase at 2.5 uM incubated for 24 hrs by flow cytometry (reference value: 55.79%); type: functional
[14] = system: A549; experiment: induction of morphological changes in human A549 cells assessed as appearance of apoptotic bodies at 1.25 to 5 uM incubated for 24 hrs by DAPI-staining based microscopic method; type: functional, cell-based
[15] = system: A549; experiment: Induction of cell cycle arrest in human A549 cells assessed as accumulation at G0/G1 phase at 5 uM incubated for 24 hrs by flow cytometry (reference value: 55.79%); type: functional
[16] = system: A549; experiment: Induction of cell cycle arrest in human A549 cells assessed as accumulation at S phase at 1.25 uM incubated for 24 hrs by flow cytometry (reference value: 33.65%); type: functional
[17] = system: A549; experiment: Induction of apoptosis in human A549 cells after 24 hrs by Annexin-V-FITC/propidium iodide staining based flow cytometric method; type: functional, cell-based
[18] = system: A549; experiment: Induction of apoptosis in human A549 cells assessed as early apoptotic cells at 1.25 uM after 24 hrs by Annexin-V-FITC/propidium iodide staining based flow cytometric method (reference value: 0.56%); type: functional
[19] = target: DNA topoisomerase 2-alpha (Homo sapiens) (UniProt P11388); experiment: Inhibition of human topoisomerase-2alpha expressed in baculovirus infected insect cells assessed as reduction in pBR322 DNA relaxation measured after 30 mins by ethidium bromide staining based agarose gel electrophoresis method relative to control
DNA topoisomerase 2-alpha (Homo sapiens), sequence (P11388 whole entry): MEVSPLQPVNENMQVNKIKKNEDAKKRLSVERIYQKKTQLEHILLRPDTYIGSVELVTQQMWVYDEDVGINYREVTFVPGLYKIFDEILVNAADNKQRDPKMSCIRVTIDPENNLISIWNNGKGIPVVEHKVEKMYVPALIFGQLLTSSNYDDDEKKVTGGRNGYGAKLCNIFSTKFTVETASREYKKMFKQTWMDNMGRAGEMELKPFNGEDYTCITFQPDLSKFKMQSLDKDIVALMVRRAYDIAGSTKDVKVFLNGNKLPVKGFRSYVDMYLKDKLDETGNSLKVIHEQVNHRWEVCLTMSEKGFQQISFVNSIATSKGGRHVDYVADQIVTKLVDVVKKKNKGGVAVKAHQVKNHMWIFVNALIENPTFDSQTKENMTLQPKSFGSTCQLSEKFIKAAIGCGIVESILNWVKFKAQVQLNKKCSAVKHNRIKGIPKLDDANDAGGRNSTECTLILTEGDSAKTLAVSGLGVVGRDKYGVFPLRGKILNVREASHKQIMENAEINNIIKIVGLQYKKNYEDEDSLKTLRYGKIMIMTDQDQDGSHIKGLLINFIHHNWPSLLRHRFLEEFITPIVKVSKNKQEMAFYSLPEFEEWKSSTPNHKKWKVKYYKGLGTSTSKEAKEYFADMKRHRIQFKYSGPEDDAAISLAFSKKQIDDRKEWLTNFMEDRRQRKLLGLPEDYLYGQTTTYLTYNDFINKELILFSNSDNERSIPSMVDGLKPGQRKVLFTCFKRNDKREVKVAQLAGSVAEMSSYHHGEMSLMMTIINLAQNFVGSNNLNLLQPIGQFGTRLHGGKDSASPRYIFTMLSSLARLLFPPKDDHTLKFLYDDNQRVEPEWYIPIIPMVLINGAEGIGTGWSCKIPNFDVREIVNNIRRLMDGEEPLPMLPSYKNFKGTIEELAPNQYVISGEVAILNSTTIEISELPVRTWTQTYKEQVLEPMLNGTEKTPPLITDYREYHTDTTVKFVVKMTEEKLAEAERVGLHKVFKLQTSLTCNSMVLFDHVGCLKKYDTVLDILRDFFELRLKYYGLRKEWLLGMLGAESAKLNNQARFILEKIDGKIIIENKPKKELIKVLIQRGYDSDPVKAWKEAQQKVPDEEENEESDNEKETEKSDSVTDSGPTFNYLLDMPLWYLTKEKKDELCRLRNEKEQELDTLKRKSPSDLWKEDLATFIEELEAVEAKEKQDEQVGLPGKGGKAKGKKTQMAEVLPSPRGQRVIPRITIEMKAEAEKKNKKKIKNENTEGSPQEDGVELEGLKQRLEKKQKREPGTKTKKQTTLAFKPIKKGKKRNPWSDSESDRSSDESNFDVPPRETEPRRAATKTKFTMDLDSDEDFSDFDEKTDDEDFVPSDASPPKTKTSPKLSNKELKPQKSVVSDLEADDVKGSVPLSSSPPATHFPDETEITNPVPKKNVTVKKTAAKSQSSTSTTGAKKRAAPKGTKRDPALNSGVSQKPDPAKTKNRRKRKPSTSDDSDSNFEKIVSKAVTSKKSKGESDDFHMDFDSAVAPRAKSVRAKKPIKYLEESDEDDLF

[20] = system: A549; experiment: Induction of DNA damage in human A549 cells assessed as gammaH2AX accumulation incubated for 24 hrs by DAPI staining based Immunofluorescence method; type: functional, cell-based
[21] = system: A549; experiment: Induction of cell cycle arrest in human A549 cells assessed as accumulation at G2/M phase at 13.6 uM incubated for 24 hrs by flow cytometry (reference value: 10.38%); type: functional
[22] = system: MCF7; experiment: Cytotoxicity against human MCF7 cells incubated for 48 hrs by MTT assay; type: functional, cell-based; conditions: MCF7, 48 h
[23] = system: A549; experiment: Induction of apoptosis in human A549 cells assessed as necrotic cells at 1.25 uM after 24 hrs by Annexin-V-FITC/propidium iodide staining based flow cytometric method (reference value: 1.12%); type: functional
[24] = system: A549; experiment: Induction of ROS generation in human A549 cells assessed as increase in fluorescence intensity at 5 uM incubated for 24 hrs by DCFH-DA staining-based flow cytometric analysis relative to control; type: functional
[25] = system: A549; experiment: induction of morphological changes in human A549 cells assessed as cell shrinkage at 1.25 to 5 uM incubated for 24 hrs by DAPI-staining based microscopic method; type: functional
[26] = system: A549; experiment: Induction of cell cycle arrest in human A549 cells assessed as accumulation at G0/G1 phase at 1.25 uM incubated for 24 hrs by flow cytometry (reference value: 55.79%); type: functional
[27] = system: KB; experiment: Cytotoxicity against human KB cells incubated for 48 hrs by MTT assay; type: functional, cell-based
[28] = system: A549; experiment: Induction of cell cycle arrest in human A549 cells assessed as accumulation at G2/M phase at 1.25 uM incubated for 24 hrs by flow cytometry (reference value: 10.38%); type: functional
[29] = system: A549; experiment: Induction of cell cycle arrest in human A549 cells assessed as accumulation at S phase at 2.5 uM incubated for 24 hrs by flow cytometry (reference value: 33.65%); type: functional
[30] = system: A549; experiment: Induction of cell cycle arrest in human A549 cells assessed as accumulation at G2/M phase at 2.5 uM incubated for 24 hrs by flow cytometry (reference value: 10.38%); type: functional
[31] = system: A549; experiment: Induction of ROS generation in human A549 cells incubated for 24 hrs by DCFH-DA staining-based flow cytometric analysis relative to control; type: functional, cell-based
[32] = system: A549; experiment: Induction of apoptosis in human A549 cells assessed as necrotic cells at 13.6 uM after 24 hrs by Annexin-V-FITC/propidium iodide staining based flow cytometric method (reference value: 1.12%); type: functional
[33] = system: A549; experiment: Induction of cell cycle arrest in human A549 cells assessed as accumulation at G0/G1 phase at 13.6 uM incubated for 24 hrs by flow cytometry (reference value: 55.79%); type: functional
[34] = system: A549; experiment: Induction of apoptosis in human A549 cells assessed as necrotic cells at 5 uM after 24 hrs by Annexin-V-FITC/propidium iodide staining based flow cytometric method (reference value: 1.12%); type: functional
[35] = system: A549; experiment: Induction of cell cycle arrest in human A549 cells assessed as accumulation at G0/G1 phase incubated for 24 hrs by flow cytometry; type: functional, cell-based

COc1cc(O)c2c(c1)C(=O)C1=C(C2=O)[C@H](OC[C@@H]2C(=O)CC[C@@H]2C)OC(C)=C1
Activity [1]: 0.87%
Activity [2]: 6.79%
Activity [3]: 1.11%
Activity [4]: 24.26%
Activity [5]: 5.02%
Activity [6]: 1.14%
Activity [7]: 1.3%
Activity [8]: 10.75%
Activity [9]: 29.74%
Activity [10]: 1.8%
Activity [11]: 2.69%
IC50 [12]: 1.3 µM
Activity [13]: 66.37%
Activity [14]: Active
Activity [15]: 69.15%
Activity [16]: 33.31%
Activity [17]: Dose-dependent effect
Activity [18]: 0.98%
inhibition [19]: Active
Activity [20]: Dose-dependent effect
Activity [21]: 44.81%
IC50 [22]: 1.3 µM
Activity [23]: 0.73%
fold change (FC) [24]: 5
Activity [25]: Active
Activity [26]: 59.51%
IC50 [27]: 3 µM
Activity [28]: 7.18%
Activity [29]: 30.07%
Activity [30]: 3.56%
Activity [31]: Dose-dependent effect
Activity [32]: 2.15%
Activity [33]: 30.93%
Activity [34]: 7.75%
Activity [35]: Dose-dependent effect

From ChEMBL document CHEMBL4627395, “Cytotoxic Heptaketides from the Endolichenic Fungus Ulospora bilgramii” (J Nat Prod, 2020)
